# Data as given in patent US9095541B2, “Brain tumor targeting peptides and methods” (Arch Cancer Therapeutics, Inc., priority 2009, dated 2015).
# Peptide text beside a SMILES is read from it.
# Tests used:
# U87R xenografts = assay: In vivo phage homing, U87R xenografts, anti-M13 immunohistochemistry; design: species or system SCID mice; conditions: H10 phage perfused in mice carrying U87R tumors; signal within tumor mass or peritumoral; method uses mannitol pretreatment
# Procedure: FIG. 6A illustrates the in vivo homing capability of H10. Invasive U87R or non-invasive U87T cells were grown in the right brain hemisphere of SCID mice. Once tumors were established, mice were anaesthetized and perfused with H10 phage for 10 minutes. Unbound phage was flushed from the system with PBS. Brains were cryosectioned and immunohistochemically stained for M13 phage or human nuclear antigen (hNA).
# The ability of the selected phage or their corresponding peptides was examined for their ability to ‘home’ to their respective U87R or BTIC glioma cell targets in vivo, according to their ability to detect glioma cells in an orthotopic xenograft model. In the case of H10, SCID mice carrying U87R or U87T xenografts were injected with the test phage for ten minutes, which was subsequently perfused with PBS to remove any unbound particles.
# 3×10^4 U87T cells, 3×10^5 U87R cells or 5×10^4 BTICs were injected in a 3 μL volume into one brain hemisphere of a SCID mouse and allowed to grow for 4, 6 or 12 weeks respectively. […]
# Serial sections were fixed with cold acetone, and rehydrated through an ethanol gradient. […] Avidin-biotin peroxidase complexes were then formed using the VECTASTAIN Elite ABC kit (Vector Laboratories) and detected by addition of […] […]
# [1] = Water solubility of peptide; type: physicochemical; conditions: three N-terminal residues (KKG) added
# Text: In one aspect, the invention includes a peptide composition for targeting either (i) a highly invasive glioma cells (HIGC) subtype of human GBM cells, e.g., the U87R subtype of U87GM cells, or (ii) a brain tumor initiating cell (BTIC) subtype of human GBM cells, as characterized above. The peptide in the composition is 12-20 amino acid residues in length and contains one of the sequences identified as SEQ ID NOS-1-17, or a sequence that is at least 90% homologous with the given sequence. That is, the peptide has the same sequence as one of SEQ ID NOS: 1-17, or a sequence that differs from the given sequence by at most one amino acid residue. The peptide may contain only the given sequence of amino acids, or may contain additional N- and/or C-terminal residues up to a total of 20 residues. Thus, for example, the peptide corresponding to SEQ ID NO: 7, […] (H10), may have this exact sequence, the same sequence but with a single amino acid substitution, addition or deletion at any of the 12 residue positions, or a peptide having a total of up to eight additional residues at one or both of the N- or C-terminals.
# [2] = test system: U87MG cells transfected with p75^NTR; assay: Transwell migration assay, p75NTR-transfected U87MG; type: cell-based, human; conditions: in vitro invasion assay
# Procedure: The membranes of 8 μm pore sized transwell inserts (Corning Costar) were coated with brain-like matrix (720 μL of 3 mg/mL collagen I (PureCol); 180 μL of 10×DMEM (Invitrogen); 9 uL of 1 mg/mL human plasma fibronectin (Sigma); 9 uL of 1 mg/mL chondroitin sulfate proteoglycans (Chemicon); 16 μL of 0.15 mg/mL laminin (Chemicon)) on both sides, allowed to dry, then plated with 5×10^4 cells in 100 μL media in the upper chamber and 500 μL media in the lower chamber. Inclusion of collagen was essential to see the inhibitory effect of H10 (FIG. S4). 3×10^10 pfu of test phage were added to the upper chambers containing the cells, which were incubated for 4 hours under normal culture conditions. At the end of the incubation, the media was aspirated and the cells were fixed and stained in 1% crystal violet in 95% ethanol for one minute. Transwells were rinsed in PBS, then cells on the upper membrane surfaces were removed with a cotton swab. Cells which had migrated to the undersurface of the membranes were counted by light microscopy, and the sum of cells in five microscopic fields was recorded for each membrane.
# [3] = test system: lipid raft marker GM1 in U87R cells; type: cell-based, human; conditions: cholesterol oxidase, Alexa 555-cholera toxin B subunit, 120 minutes
# p75^NTR in U87R cells = assay: Sucrose/iodixanol density gradient fractionation with Western blot for p75NTR; type: cell-based, human; conditions: U87R cells on collagen, treated 2 hours, 10-40% sucrose/iodixanol gradient
# Text: White arrows indicate higher molecular weight p75^NTR-containing complexes. Lines underneath the figure indicate the fractions in which common organelles are generally found;
# The p75^NTR can be detected differentially in lipid rafts isolated with specific detergents, and must be proteolytically processed to trigger cell migration in glioma cells. Thus, it is probable that p75^NTR is also cleaved within a lipid raft after endocytosis. To determine if H10 may be having an impact on endosomally located p75^NTR, cells were hypertonically lysed (to keep vesicles and organelles at least partially intact) and separated on a 10-40% sucrose/iodixanol gradient from which fractions were individually collected.
# Cells were scraped into 1 mL of 0.25M sucrose, 140 mM NaCl, 1 mM EDTA, 20 mM Tris-HCl, pH 8.0, and dounce homogenized until cells were no longer visible by microscopy. Debris was pelleted for 5 min, 800×g and the supernatant was loaded on top of a 10 mL continuous 10-40% gradient, prepared by the dilution of OptiPrep (Sigma, 60% iodixanol) with 0.25M sucrose, 140 mM NaCl, 3 mM EDTA, 60 mM Tris-HCl, pH8.0. Gradients were spun in a swinging bucket rotor at 48000×g for 18 hrs and 0.5 mL fractions were collected. Total protein was precipitated from each fraction by the addition of 2 volumes of −20° C. […]
# [4] = test system: transferrin or its receptor (markers of clathrin-coated vesicles); assay: FITC-transferrin uptake and transferrin receptor gradient fractionation; type: cell-based, human; conditions: U87p75 and U87R cells, 2 hours
# Procedure: FIG. 9A are confocal images of p75^NTR transfected glioma cells (U87p75) imaged for uptake of FITC-transferrin.
# Cells were lysed, fractioned using an iodixanol gradient, and Western Blot analysis for the transferrin receptor was performed;
# Cells were scraped into 1 mL of 0.25M sucrose, 140 mM NaCl, 1 mM EDTA, 20 mM Tris-HCl, pH 8.0, and dounce homogenized until cells were no longer visible by microscopy. Debris was pelleted for 5 min, 800×g and the supernatant was loaded on top of a 10 mL continuous 10-40% gradient, prepared by the dilution of OptiPrep (Sigma, 60% iodixanol) with 0.25M sucrose, 140 mM NaCl, 3 mM EDTA, 60 mM Tris-HCl, pH8.0. Gradients were spun in a swinging bucket rotor at 48000×g for 18 hrs and 0.5 mL fractions were collected. Total protein was precipitated from each fraction by the addition of 2 volumes of −20° C. 20 mM DTT, 15% TCA, storage at −20° C. overnight, followed by centrifugation at 4° C. for 20 minutes. Pellets were resuspended in 20 μL 1M Tris and 20 μL 2× Laemmli buffer. The entire volume was loaded into a single well for SDS-PAGE resolution and western transfer.
compound,measurement,setting,value
CC[C@H](C)[C@H](NC(=O)[C@H](CO)NC(=O)[C@H](CC(N)=O)NC(=O)[C@@H](N)[C@@H](C)O)C(=O)N[C@@H](Cc1c[nH]c2ccccc12)C(=O)N[C@@H](Cc1ccc(O)cc1)C(=O)N[C@H](C(=O)N[C@@H](C)C(=O)N1CCC[C@H]1C(=O)N[C@@H](Cc1ccc(O)cc1)C(=O)N[C@@H](CCSC)C(=O)N[C@@H](Cc1ccccc1)C(=O)O)[C@@H](C)O [H10] (H-TNSIWYTAPYMF-OH; N-terminus and C-terminus assumed),crossing of the blood brain barrier (BBB),U87R xenografts,has the ability to cross the blood brain barrier
CC[C@H](C)[C@H](NC(=O)[C@H](CO)NC(=O)[C@H](CC(N)=O)NC(=O)[C@@H](NC(=O)CNC(=O)[C@H](CCCCN)NC(=O)[C@@H](N)CCCCN)[C@@H](C)O)C(=O)N[C@@H](Cc1c[nH]c2ccccc12)C(=O)N[C@@H](Cc1ccc(O)cc1)C(=O)N[C@H](C(=O)N[C@@H](C)C(=O)N1CCC[C@H]1C(=O)N[C@@H](Cc1ccc(O)cc1)C(=O)N[C@@H](CCSC)C(=O)N[C@@H](Cc1ccccc1)C(=O)O)[C@@H](C)O [modified H10] (H-KKGTNSIWYTAPYMF-OH; N-terminus and C-terminus assumed),water solubility relative to H10 peptide,[1],substantially more water soluble
cholesterol oxidase,cell migration of U87p75 glioma cells,[2],significantly inhibited cell migration
same,GM1 localisation,[3],"accumulate within the cells, particularly at the plasma membrane"
same,distribution of p75^NTR forms in density gradient fractions,p75^NTR in U87R cells,shift of higher molecular weight forms of p75^NTR into the denser gradient fractions
same,intracellular localization or gradient fractionation of transferrin or its receptor,[4],no effect
